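Five compound concentrations were applied to cells in 96-well plates for 48 hours; endpoints were derived by simple linear interpolation of the resulting dose-response curve. The concentration for full growth arrest is given as TGI.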
Legend:
Experiment in all cases: inhibition of tumour cell growth, NCI panel, 48 h
786-0 renal = system: 786-0 renal
A498 renal = system: A498 renal
A549 NSCLC = system: A549 NSCLC
ACHN renal = system: ACHN renal
BT-549 breast = system: BT-549 breast
CAKI-1 renal = system: CAKI-1 renal
CCRF-CEM leukemia = system: CCRF-CEM leukemia
COLO 205 colon = system: COLO 205 colon
DU-145 prostate = system: DU-145 prostate
EKVX NSCLC = system: EKVX NSCLC
HCC-2998 colon = system: HCC-2998 colon
HCT-116 colon = system: HCT-116 colon
HCT-15 colon = system: HCT-15 colon
HL-60(TB) leukemia = system: HL-60(TB) leukemia
HOP-62 NSCLC = system: HOP-62 NSCLC
HOP-92 NSCLC = system: HOP-92 NSCLC
HS 578T breast = system: HS 578T breast
HT29 colon = system: HT29 colon
IGROV1 ovarian = system: IGROV1 ovarian
K-562 leukemia = system: K-562 leukemia
KM12 colon = system: KM12 colon
LOX IMVI melanoma = system: LOX IMVI melanoma
M14 melanoma = system: M14 melanoma
MALME-3M melanoma = system: MALME-3M melanoma
MCF7 breast = system: MCF7 breast
MDA-MB-231 breast = system: MDA-MB-231 breast
MDA-MB-435 = system: MDA-MB-435
MDA-N = system: MDA-N
MOLT-4 leukemia = system: MOLT-4 leukemia
NCI-H226 lung = system: NCI-H226 lung
NCI-H23 lung = system: NCI-H23 lung
NCI-H460 lung = system: NCI-H460 lung
NCI-H522 lung = system: NCI-H522 lung
NCI/ADR-RES ovarian = system: NCI/ADR-RES ovarian
OVCAR-3 ovarian = system: OVCAR-3 ovarian
OVCAR-4 ovarian = system: OVCAR-4 ovarian
OVCAR-5 ovarian = system: OVCAR-5 ovarian
OVCAR-8 ovarian = system: OVCAR-8 ovarian
PC-3 prostate = system: PC-3 prostate
RPMI-8226 leukemia = system: RPMI-8226 leukemia
RXF 393 renal = system: RXF 393 renal
SF-268 CNS = system: SF-268 CNS
SF-295 CNS = system: SF-295 CNS
SF-539 CNS = system: SF-539 CNS
SK-MEL-2 melanoma = system: SK-MEL-2 melanoma
SK-MEL-28 melanoma = system: SK-MEL-28 melanoma
SK-MEL-5 melanoma = system: SK-MEL-5 melanoma
SK-OV-3 ovarian = system: SK-OV-3 ovarian
SN12C renal = system: SN12C renal
SNB-19 CNS = system: SNB-19 CNS
SNB-75 CNS = system: SNB-75 CNS
SR leukemia = system: SR leukemia
SW-620 colon = system: SW-620 colon
T-47D breast = system: T-47D breast
TK-10 renal = system: TK-10 renal
U251 CNS = system: U251 CNS
UACC-257 melanoma = system: UACC-257 melanoma
UACC-62 melanoma = system: UACC-62 melanoma
UO-31 renal = system: UO-31 renal

Work on `COc1ccc(O)c(/C=N/NC(=S)N2CCCCC2)c1` yielded a TGI (786-0 renal) greater than 78.2 µM, a TGI (A498 renal) greater than 41.5 µM and a TGI (A549 NSCLC) greater than 100 µM. It also gave a TGI (ACHN renal) of 23.3 µM, a TGI (BT-549 breast) greater than 94.8 µM and a TGI (CAKI-1 renal) greater than 84.1 µM. For the same molecule, the TGI (CCRF-CEM leukemia) was greater than 47.8 µM, the TGI (COLO 205 colon) was greater than 100 µM and the TGI (DU-145 prostate) was greater than 43.1 µM. It also gave a TGI (EKVX NSCLC) greater than 65.3 µM, a TGI (HCC-2998 colon) of 19.6 µM and a TGI (HCT-116 colon) greater than 100 µM. For the same molecule, the TGI (HCT-15 colon) was greater than 100 µM, the TGI (HL-60(TB) leukemia) was greater than 23.1 µM and the TGI (HOP-62 NSCLC) was greater than 20.1 µM. The TGI (HOP-92 NSCLC) was 50.8 µM, the TGI (HS 578T breast) was greater than 100 µM and the TGI (HT29 colon) was greater than 92.3 µM. For the same molecule, the TGI (IGROV1 ovarian) was greater than 67.4 µM, the TGI (K-562 leukemia) was greater than 21.8 µM and the TGI (KM12 colon) was greater than 100 µM. For the same molecule, the TGI (LOX IMVI melanoma) was greater than 46 µM, the TGI (M14 melanoma) was 10.9 µM and the TGI (MALME-3M melanoma) was 37.3 µM. It also gave a TGI (MCF7 breast) greater than 100 µM, a TGI (MDA-MB-231 breast) greater than 100 µM and a TGI (MDA-MB-435) greater than 100 µM. For the same molecule, the TGI (MDA-N) was greater than 100 µM, the TGI (MOLT-4 leukemia) was greater than 100 µM and the TGI (NCI-H226 lung) was 7.96 µM. It also gave a TGI (NCI-H23 lung) of 20.4 µM, a TGI (NCI-H460 lung) greater than 30.1 µM and a TGI (NCI-H522 lung) greater than 62.7 µM. For the same molecule, the TGI (NCI/ADR-RES ovarian) was greater than 23.2 µM, the TGI (OVCAR-3 ovarian) was greater than 13.4 µM and the TGI (OVCAR-4 ovarian) was greater than 100 µM. It also gave a TGI (OVCAR-5 ovarian) greater than 100 µM, a TGI (OVCAR-8 ovarian) greater than 43.1 µM and a TGI (PC-3 prostate) greater than 100 µM. It also gave a TGI (RPMI-8226 leukemia) greater than 27.2 µM, a TGI (RXF 393 renal) greater than 100 µM and a TGI (SF-268 CNS) of 62.9 µM. For the same molecule, the TGI (SF-295 CNS) was greater than 100 µM, the TGI (SF-539 CNS) was greater than 100 µM and the TGI (SK-MEL-2 melanoma) was greater than 100 µM. It also gave a TGI (SK-MEL-28 melanoma) greater than 83.4 µM, a TGI (SK-MEL-5 melanoma) of 30.9 µM and a TGI (SK-OV-3 ovarian) greater than 100 µM. For the same molecule, the TGI (SN12C renal) was greater than 100 µM, the TGI (SNB-19 CNS) was greater than 94.9 µM and the TGI (SNB-75 CNS) was greater than 100 µM. It also gave a TGI (SR leukemia) greater than 24.5 µM, a TGI (SW-620 colon) greater than 100 µM and a TGI (T-47D breast) greater than 89.5 µM. The TGI (TK-10 renal) was greater than 100 µM, the TGI (U251 CNS) was greater than 100 µM and the TGI (UACC-257 melanoma) was greater than 100 µM. For the same molecule, the TGI (UACC-62 melanoma) was 23.8 µM and the TGI (UO-31 renal) was 6.22 µM.

Reference: PubChem BioAssay (NCI)
